How the values were obtained:
[1] = tested on: CT26 luc+ tumor cells; test: Bioluminescence imaging of luciferase transduced CT26 tumors in RAG2-/- mice given LTI and CY with or without T cells; parameters: species or system BALB/c RAG2-/- mice; conditions: mouse, in vivo
From the text: Cell lines. The CT26 cell line (an N-nitro-N-methylurethane-induced BALB/c murine colon carcinoma) was purchased from ATCC (Manassas, Va.). The 4T1 cell line (spontaneously arising) was also obtained from ATCC. The 4T1-LUC/GFP and CT26-LUC/GFP cell lines were lentiviraly transduced. The lentiviral vector pHR-IG was made by Dr. Yoshitaka Akagi. The GFP-firefly luciferase fusion (GLF) gene was subcloned from pJW.GFP-yLuc (kindly provided by Dr. M. H. Bachmann) into pHR2 to generate pHR2-GLF. Lentiviral particles expressing GLF were prepared as described before. […]. WT 4T1 and CT26 cells were seeded in a 6 well plate at 0.25×10^6 cells/well and incubated overnight in a 37° C. incubator. Titrated virus was then used to transduce the cell lines in the presence of protamine sulfate (10 μg/ml) to enhance transduction efficiency. Stable lentiviral transductants were then sorted 4 times for GFP fluorescence (100% purity) using a FACS DIVA cell sorter. Sorted cells were expanded and screened for bioluminescence using an Xenogen IVIS spectrum (Caliper Life Sciences; Hopkinton, Mass.), as well as GFP. Cell lines were maintained in RPMI-1640 complete medium supplemented with 10% fetal calf serum, L-glutamine, 2 mercaptoethanol, streptomycin and penicillin.
In vivo BLI imaging. In vivo BLI was performed according to the method of Edinger et al. Briefly, mice were injected intraperitoneally with luciferin ([…]). Ten minutes later, mice were imaged using an IVIS100 charge-coupled device imaging system (Xenogen) for 5 minutes. Imaging data were analyzed and quantified with Living Image software (Xenogen).

[2] = tested on: 4T1 luc+ breast tumor; test: 4T1 breast tumor metastasis model: LTI (3 daily doses of 20 Gy), CY and cryopreserved autologous T cells; type: in vivo, BALB/c mice; conditions: 21 day 4T1 tumors; 3 daily doses of 20 Gy LTI, then single dose of CY
Description: Irradiation. […] For local tumor irradiation, unanesthetized mice were placed in lead jigs through which established tumors in the hind quarter were protruded for irradiation to an area of approximately 2 cm diameter. Irradiation was performed with a Phillips X-ray unit operated at 200 kV with the dose rate of 1.21 Gy/min (20 mÅ with added filtration of 0.5 mm copper, the distance from X-ray source to the target of 31 cm, and a half value layer of 1.3 mm copper).
Enriched cells were stained with anti-TCR-allophycocyanin (APC) and anti-CD4 or anti-CD8-fluorescein isothiocyanate (FITC) mAbs to check for purity, and preparations were uniformly at least 95% pure.
FACS Aria (Becton Dickinson, Mountain View, Calif.) was used for analysis with FlowJo software (TreeStar, Ashland, Oreg.). After sorting cells were checked by FACS reanalysis and determined to be >99% pure. Collected T cells were cryopreserved with 10% DMSO and frozen in liquid nitrogen.
In vivo BLI imaging. In vivo BLI was performed according to the method of Edinger et al. Briefly, mice were injected intraperitoneally with luciferin (10 μg/g body weight). Ten minutes later, mice were imaged using an IVIS100 charge-coupled device imaging system (Xenogen) for 5 minutes. Imaging data were analyzed and quantified with Living Image software (Xenogen).

[3] = tested on: CT26 tumors; test: Survival of CT26 tumor-bearing RAG-2-/- mice given 30 Gy LTI with or without CY and T cells; type: in vivo, BALB/c RAG2-/- mice; conditions: 30 Gy LTI at day 21
Description: Animals. Wild-type male BALB/c (H-2^d) mice, and male BALB/c RAG2^−/− mice, were purchased from Jackson Laboratories (Bar Harbor, Me.). Mice were 5-8 weeks old.
Irradiation. Total body irradiation was performed with a Philips X-ray unit (200 kV, 10 mA; Philips Electronic Instruments Inc., Rahway, N.J.) at a rate of 84 cGy/min with a 0.5 mm Cu filter. For local tumor irradiation, unanesthetized mice were placed in lead jigs through which established tumors in the hind quarter were protruded for irradiation to an area of approximately 2 cm diameter. Irradiation was performed with a Phillips X-ray unit operated at 200 kV with the dose rate of 1.21 Gy/min (20 mÅ with added filtration of 0.5 mm copper, the distance from X-ray source to the target of 31 cm, and a half value layer of 1.3 mm copper).
Cell preparation, splenectomy, and collection of T cells for autologous transplantation. Single cell suspensions of bone marrow and spleen were prepared according to previously described procedures. […]
FACS Aria (Becton Dickinson, Mountain View, Calif.) was used for analysis with FlowJo software (TreeStar, Ashland, Oreg.). After sorting cells were checked by FACS reanalysis and determined to be >99% pure. […]

**Q.** Which results are given for O=P1(N(CCCl)CCCl)NCCCO1 (stereo not shown) [CY, cyclophosphamide]?
**A.** day by which all of the mice died [1]: ≤ 107; death or survival of mice by day 35 [1]: 2 of 5; tumor signal / tumor growth by BLI [1]: continued tumor growth; mice died by day 84 [2]: 6 of 8; mice relapsed at day 98 [2]: 1; tumor growth [2]: progression of tumor growth was slowed; survival (none of the mice survived beyond) [3]: ≤ 80 days

Source: US11077141B2, “Anti-tumor T cell immunity induced by high dose radiation” (The Board of Trustees of the Leland Stanford Junior …, priority 2012, dated 2021)
